From patent US12606585B2, “Fluorinated hexoses” (Stichting Radboud Universiteit, priority 2020, dated 2026)
Where two headings read alike, the source gives them in different places.

Columns and labels:
Format in all cases: cell-based
THP-1 cells [1] = assay: Lectin staining for fucose expression inhibition, THP-1 cells; conditions: Homo sapiens, 72 h, 3 days, 0-512 μM compound, flow cytometry
Procedure: (§1) THP-1 cells (TIB-202, ATCC) and Jurkat cells (TIB-152, ATCC) were cultured in RPMI-1640 medium containing 2 mM Glutamine and 25 mM HEPES (Gibco™, Life Technologies), supplemented with 10% v/v heat-inactivated fetal bovine serum (FBS) (Gibco™, Life Technologies) and 1× antibiotic-antimycotic solution (100 units/mL of penicillin, 100 μg/mL of streptomycin, and 0.25 μg/mL Fungizone) (Gibco™, Life Technologies) and passaged every 3-4 day by seeding a fraction of 0.5-2 min cells of the culture per 10 ml medium. EL-4 cells (TIB-39, ATCC) were cultured in DMEM medium (Gibco™, Life Technologies), supplemented with 10% v/v heat-inactivated fetal bovine serum (FBS) (Gibco™, Life Technologies), 1× antibiotic-antimycotic solution (100 units/mL of penicillin, 100 μg/mL of streptomycin, and 0.25 μg/mL Fungizone) (Gibco™, Life Technologies) and 2 mM Glutamine (Gibco™, Life Technologies) and passaged every 2-4 days by seeding a fraction of 0.5-1 min cells of the culture per 10 ml medium. For passaging a T75 flask (Corning), medium was removed and the monolayer was washed with 10 ml PBS pH 7.2 without CaCl2) and MgCl2 (Gibco™, Life Technologies) before adding 3.5 ml 0.05% trypsin/EDTA solution (Gibco™ 5 Life Technologies) in PBS. Cells were incubated at rt for 30-45 s after which the trypsin/EDTA-solution was removed. Cells were incubated for an additional 2 min at 37° C., 5.0% CO2 and resuspended in cell culture medium. Cells were then seeded at ˜40.000 cells/cm^2 in new culture flasks. All cells were cultured at 37° C., 5% CO2 in a humidified incubator.
(§2) Protocol below was repeated until n>=3 for each compounds using cells at different passage numbers. Cells were cultured in medium containing different concentrations of unnatural sugar derivatives on either 24-wells plates (adherent cell lines; 80,000 cells per well) (Corning) or 96-wells plates (suspension cell lines; 13,000-20,000 cells per well) (Thermo Scientific). DMSO, at same dilution as the unnatural sugar derivative stock solutions, was used as a positive control for lectin staining; P-Fuc2F was used for all concentrations as negative control. Cells were incubated for three days at 37° C. and 5% CO2 in a humidified incubator. Cells were harvested and washed with 100 μl 1×CF-blocking buffer (Vector Laboratories Inc.) containing 1 mM CaCl2) and 1 mM MgCl2. The cells were then resuspended in 50 μl 0.5 μg/ml of 0.5 ng/ml biotinylated lectin in 1× carbo-free blocking buffer and incubated at 4-8° C. for 45-60 min. Cells were washed with 3×100 μl PBA (PBS containing 1% v/v FBS and 0.1% w/w sodium azide), incubated with 40 μl 1 μg/ml Streptavidin-phycoerythrin conjugate (Invitrogen, eBioscience) in PBA for 10-15 min at 4-8° C. Cells were then washed again with 3×100 μl PBA, resuspended in PBA and fluorescence was measured with a flow cytometer (Beckman & Dickinson FACS-Calibur). Each replicate for each condition with >10,000 gated events. Data was processed using FlowJo (FlowJo LLC). Percentage of lectin binding was obtained by normalizing the MFI values to the MFI values of the respective DMSO control.
(§3) Three cell lines (THP-1, Jurkat, EL4) were cultured for 3 days with 0-512 μM compound. The cells were stained with two fucose specific lectins (AAL & AOL) and analysed by flow cytometry, presented as mean percentage lectin binding normalized to control (n=3).

EL4 cells = assay: Lectin staining for fucose expression inhibition, EL4 cells; conditions: Mus musculus, 72 h, 3 days, 0-512 μM compound, flow cytometry
Procedure: as §1, §2, §3

Jurkat cells = assay: Lectin staining for fucose expression inhibition, Jurkat cells; conditions: Homo sapiens, 72 h, 3 days, 0-512 μM compound, flow cytometry
Procedure: as §1, §2, §3

THP-1 cells [2] = assay: Onset and recovery of inhibition; conditions: 100 μM, AAL lectin
Procedure: Cells were cultured in medium containing different concentrations of unnatural sugar derivatives on 96-wells plates (suspension cell lines; 13,000-20,000 cells per well) (Thermo Scientific). DMSO, at same dilution as the unnatural sugar derivative stock solutions, was used as a positive control for lectin staining; P-Fuc2F was used for all concentrations as negative control. Cells were incubated for eight days at 37° C. and 5% CO2 in a humidified incubator. Medium was changed after three and six days of incubation with cell culture medium without unnatural sugar derivatives. Every day cells were harvested and washed with 100 μl 1× CF-blocking buffer (Vector Laboratories Inc.) containing 1 mM CaCl2) and 1 mM MgCl2. The cells were then resuspended in 50 μl 0.5 μg/ml of either 0.5 ng/ml biotinylated AAL, AOL, SNA, MAL-II, WGA, LCA, PSA, PNA, PHA-L or GSL-1 lectin in 1× carbo-free blocking buffer or with 50 μl of non-supplemented 1× carbo-free blocking buffer and incubated at 4-8° C. for 45-60 min. Cells were washed with 3×100 μl PBA (PBS containing 1% v/v FBS and 0.1% w/w sodium azide), incubated with 40 μl 1 μg/ml Streptavidin-phycoerythrin conjugate (Invitrogen, eBioscience) in PBA for 10-15 min at 4-8° C. Cells were then washed again with 3×100 μl PBA, resuspended in PBA and fluorescence was measured with a flow cytometer (Beckman & Dickinson FACS-Calibur). Each replicate for each condition with >10,000 gated events. Data was processed using FlowJo (FlowJo LLC). Percentage of lectin binding was obtained by normalizing the MFI values to the MFI values of the respective DMSO control.
The onset of inhibition and duration for recovery was evaluated on THP-1 cells with 100 and 10 μM compound using the AAL lectin (FIG. 5). At 100 μM concentration compounds 9 and 10 inhibit fucosylation after 1 day and to over 50% after 3 days. Fucosylation was fully recovered to normal 5 levels on day 6. […] Similar results were obtained using the AOL lectin.

THP-1 cells [3] = assay: Lectin specificity: total cell surface glycosylation with additional lectins; conditions: 100 μM and 10 μM, three days
Procedure: Protocol below was repeated until n>=3 for each compounds using cells at different passage numbers. Culture medium was prepared in 96-wells plates (Thermo Scientific). For every unnatural sugar derivative, 11 wells containing 100 μM of unnatural sugar derivatives and 11 wells containing 10 μM of the unnatural sugar derivatives were prepared. DMSO, at same dilution as the tested probes, was used as a positive control for lectin staining. THP-1 Cells were cultured in the plates (20,000 cells per well) and the cells were incubated for three days at 37° C. and 5% CO2. Cells were harvested and washed with 100 μl 1×CF-blocking buffer (Vector Laboratories Inc.) containing 1 mM CaCl2) and 1 mM MgCl2. The cells were then resuspended in 50 μl 0.5 μg/ml of either 0.5 ng/ml biotinylated AAL, AOL, SNA, MAL-II, WGA, LCA, PSA, PNA, PHA-L or GSL-1 lectin in 1× carbo-free blocking buffer or with 50 μl of non-supplemented 1× carbo-free blocking buffer and incubated at 4-8° C. for 45-60 min. Cells were washed with 3×100 μl PBA (PBS containing 1% v/v FBS and 0.1% w/w sodium azide), incubated with 40 μl 1 μg/ml Streptavidin-phycoerythrin conjugate (Invitrogen, eBioscience) in PBA for 10-15 min at 4-8° C. Cells were then washed again with 3×100 μl PBA, resuspended in PBA and fluorescence was measured with a flow cytometer (Beckman & Dickinson FACS-Calibur). Each replicate for each condition with >10,000 gated events. Data was processed using FlowJo (FlowJo LLC). Percentage of lectin binding was obtained by normalizing the MFI values to the MFI values of the respective DMSO control.
Compounds 9 & 10 are mannose-1-phosphate derivatives, so other glycosylation pathways such as mannosylation could be imagined to be affected. Having established the ability to inhibit cellular fucosylation with AAL and AOL lectins, the effect on total cell surface glycosylation was evaluated using additional lectins (FIG. 4A and FIG. 4B). N-glycans consist of a biantennary mannose containing backbone, recognized by WGA, and can be branched recognized by L-Pha. These branches can be terminated with galactose, recognized by PNA, or α2,6- and α2,3-linked sialic acids recognized by SNA and MAL-II, respectively. […] The decrease in binding for these lectins can thus be attributed to defucosylation as confirmed by a decrease in AAL and AOL binding and no effect on WGA binding.

[4] = AAL lectin, n=3, read-out: EC50 for fucose expression inhibition, THP-1 AAL
[5] = AOL lectin, n=3, read-out: EC50 for fucose expression inhibition, THP-1 AOL
[6] = AAL lectin, n=3, read-out: EC50 for fucose expression inhibition, EL4 AAL
[7] = AOL lectin, n=3, read-out: EC50 for fucose expression inhibition, EL4 AOL
[8] = AAL lectin, n=3, read-out: EC50 for fucose expression inhibition, Jurkat AAL
[9] = AOL lectin, n=3, read-out: EC50 for fucose expression inhibition, Jurkat AOL

Compound	EC50 (THP-1 cells [1]; [4]) [µM]	EC50 (THP-1 cells [1]; [5]) [µM]	EC50 (EL4 cells; [6]) [µM]	EC50 (EL4 cells; [7]) [µM]	EC50 (Jurkat cells; [8]) [µM]	EC50 (Jurkat cells; [9]) [µM]	onset of fucosylation inhibition (THP-1 cells [2]) [days]	inhibition at 100 µM (THP-1 cells [2]; Homo sapiens, 72 h, read-out: inhibition of fucosylation after 3 days) [%]	effect on binding of WGA, L-Pha, PNA, SNA and MAL-II lectins (THP-1 cells [3])	LCA and PSA lectin binding (THP-1 cells [3]; lectins restricted to α1,6-linked core fucosylation)
CC(=O)OC1C(OC(C)=O)[C@H](OC(C)=O)C(C)O[C@@H]1OP(=O)(OCCSC(C)=O)OCCSC(C)=O (stereo partly drawn) [P-D-Rha-1P (7), Di-(S-acetyl-2-thioethyl)-(2,3,4-tri-O-acetyl-α-D-rhamnopyranoside) phosphate]	> 500	137	> 500	> 500	> 500	153	–	–	–	–
CC(=O)OC1C(OC(C)=O)[C@H](OC(C)=O)C(C(F)(F)F)O[C@@H]1OP(=O)(OCCSC(C)=O)OCCSC(C)=O (stereo partly drawn) [P-D-Rha6F3-1P (10), Di-(S-acetyl-2-thioethyl)-(2,3,4-tri-O-acetyl-6,6,6-trifluoro-α-D-mannopyranoside) phosphate]	0.608	0.454	> 500	> 500	27.7	12.8	1	> 50	No significant effect	decreased binding
CC(=O)OC1C(OC(C)=O)[C@H](OC(C)=O)C(CF)O[C@@H]1OP(=O)(OCCSC(C)=O)OCCSC(C)=O (stereo partly drawn) [P-D-Rha6F-1P (8), Di-(S-acetyl-2-thioethyl)-(2,3,4-tri-O-acetyl-6-fluoro-α-D-rhamnopyranoside) phosphate]	267	84.4	> 500	> 500	174	345	–	–	–	–
